Converted amounts (≈) assume the structure as drawn. Starred links: 1 amine or outer side, 2 acyl side, 3 side chain; linkers in the order of their positions; H or OH if unused. Positions of bridges follow the written chain, without caps; N, C: chain ends. Non-standard residues stand in square brackets, D forms with d. Residues, ends and D or L forms follow the SMILES beside them. ξ: configuration not given here. *: point of attachment. X2 = CC(C)C[C@@H](CC(=O)[C@H](CCN)N[*:1])C(=O)[*:2]; Thr(3ξ) = CC(O)[C@H](N)C(=O)O; dNle = CCCC[C@@H](N)C(=O)O; Octanoyl = CCCCCCCC(=O)*; Dab = NCC[C@H](N)C(=O)O
Experiments:
[1] = system: K. pneumoniae FADDI-KP032; test: In vivo efficacy in mouse blood infection model (neutropenic Swiss mice); conditions: compound, free base 4 mg/kg intravenously 2 h after inoculation, blood at 4 h
Method in brief: (§1)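 Neutropenic Swiss mice (cyclophosphamide 150 mg/kg day −4, 100 mg/kg day −1, i.p.) infected i.v. with early log-phase bacteria; 4 mg/kg free base i.v. given 2 h post-inoculation. Blood CFU by cardiac puncture 4 h post-dose; Δlog10 CFU/mL treated versus saline controls.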

A. baumannii ATCC 19606 = test: as above; conditions: compound, free base 4 mg/kg intravenously 2 h after inoculation, blood at 4 h
Method in brief: as §1

P. aeruginosa ATCC 27853 = test: as above; conditions: compound, free base 4 mg/kg intravenously 2 h after inoculation, blood at 4 h
Method in brief: as §1

Klebsiella pneumoniae = system: Klebsiella pneumoniae
Method in brief: (§2)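 Read-out is the MIC, obtained by broth microdilution under CLSI guidance. Lipopeptides (TFA salt form) were diluted in cation-adjusted Mueller-Hinton broth, with polymyxin B sulphate run alongside as control.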

Acinetobacter baumannii = system: Acinetobacter baumannii
Method in brief: as §2

Pseudomonas aeruginosa = system: Pseudomonas aeruginosa
Method in brief: as §2

Enterobacter cloacae = system: Enterobacter cloacae
Method in brief: as §2

## CCCCCCCC(=O)N[C@@H](CCN)C(=O)N[C@H](C(=O)N[C@H](CO)C(=O)N[C@H]1CCNC(=O)[C@H](C(C)O)NC(=O)[C@H](CCN)NC(=O)[C@H](CCN)NC(=O)[C@H](C(C)O)NC(=O)[C@@H](CC(C)C)CC(=O)[C@H](CCN)NC1=O)C(C)O (stereo partly shown) [Compound 1] (Octanoyl-[Dab][Thr(3ξ)][dS][Dab][X2][Thr(3ξ)][Dab][Dab][Thr(3ξ)]; lactam 4-C)
[1]
  Δ log (Treated-Control at 4 h): −3.49 log10 CFU/mL
A. baumannii ATCC 19606
  Δ log (Treated-Control at 4 h): −2.13 log10 CFU/mL
P. aeruginosa ATCC 27853
  Δ log (Treated-Control at 4 h): 0.40 log10 CFU/mL
Klebsiella pneumoniae
  MIC: 0.5 µg/mL (≈ 0.443 µM)
Acinetobacter baumannii
  MIC: <0.125 µg/mL
  Minimum inhibitory concentration, Ab A ATCC 17978: 0.25 µg/mL (≈ 0.221 µM)
  Minimum inhibitory concentration, Ab ATCC 19606: 1 µg/mL (≈ 0.885 µM)
  Minimum inhibitory concentration, Ab FADDI-AB034: 0.25 µg/mL (≈ 0.221 µM)
Pseudomonas aeruginosa
  MIC: 4 µg/mL (≈ 3.54 µM)
  Minimum inhibitory concentration, Pa ATCC 27853: 4 µg/mL (≈ 3.54 µM)
  Minimum inhibitory concentration, Pa FADDI-PA022: 4 µg/mL (≈ 3.54 µM)
  Minimum inhibitory concentration, Pa FADDI-PA025: >32 µg/mL
Enterobacter cloacae
  Minimum inhibitory concentration, Ec FADDI-EC001: <0.125 µg/mL
  Minimum inhibitory concentration, Ec FADDI-EC003: <0.125 µg/mL
  Minimum inhibitory concentration, Ec FADDI-EC006: 0.5 µg/mL (≈ 0.443 µM)

## CCCCCCCC(=O)N[C@@H](CCN)C(=O)N[C@H](C(=O)N[C@H](CO)C(=O)N[C@H]1CCNC(=O)[C@H]([C@@H](C)O)NC(=O)[C@H](CCN)NC(=O)[C@H](CCN)NC(=O)[C@H]([C@@H](C)O)NC(=O)[C@@H](CCCC)NC(=O)[C@H](CCN)NC1=O)[C@@H](C)O [Compound 7] (Octanoyl-[Dab]T[dS][Dab][Dab][dNle]T[Dab][Dab]T; lactam 4-C)
[1]
  Δ log (Treated-Control at 4 h): −3.39 log10 CFU/mL
A. baumannii ATCC 19606
  Δ log (Treated-Control at 4 h): −2.87 log10 CFU/mL
P. aeruginosa ATCC 27853
  Δ log (Treated-Control at 4 h): −0.61 log10 CFU/mL
Klebsiella pneumoniae
  MIC: <0.125 µg/mL
Acinetobacter baumannii
  MIC: 0.25 µg/mL (≈ 0.221 µM)
  Minimum inhibitory concentration, Ab A ATCC 17978: <0.125 µg/mL
  Minimum inhibitory concentration, Ab ATCC 19606: 0.25 µg/mL (≈ 0.221 µM)
  Minimum inhibitory concentration, Ab FADDI-AB034: <0.125 µg/mL
Pseudomonas aeruginosa
  Minimum inhibitory concentration, Pa ATCC 27853: 2 µg/mL (≈ 1.77 µM)
  Minimum inhibitory concentration, Pa FADDI-PA022: 4 µg/mL (≈ 3.54 µM)
  Minimum inhibitory concentration, Pa FADDI-PA025: >32 µg/mL
Enterobacter cloacae
  Minimum inhibitory concentration, Ec FADDI-EC001: 0.25 µg/mL (≈ 0.221 µM)
  Minimum inhibitory concentration, Ec FADDI-EC003: 0.25 µg/mL (≈ 0.221 µM)
  Minimum inhibitory concentration, Ec FADDI-EC006: 0.5 µg/mL (≈ 0.442 µM)

## CCCCCCCC(=O)N[C@@H](CCN)C(=O)N[C@H](C(=O)N[C@@H](CCN)C(=O)N[C@H]1CCNC(=O)[C@H]([C@@H](C)O)NC(=O)[C@H](CCN)NC(=O)[C@H](CCN)NC(=O)[C@H](CO)NC(=O)[C@@H](CC(C)C)NC(=O)[C@H](CCN)NC1=O)[C@@H](C)O [Compound 25] (Octanoyl-[Dab]T[Dab][Dab][Dab][dL]S[Dab][Dab]T; lactam 4-C)
[1]
  Δ log (Treated-Control at 4 h): −2.65 log10 CFU/mL
A. baumannii ATCC 19606
  Δ log (Treated-Control at 4 h): 0.27 log10 CFU/mL
Klebsiella pneumoniae
  MIC: 0.25 µg/mL (≈ 0.221 µM)
Acinetobacter baumannii
  MIC: 8 µg/mL (≈ 7.08 µM)
  Minimum inhibitory concentration, Ab A ATCC 17978: 4 µg/mL (≈ 3.54 µM)
  Minimum inhibitory concentration, Ab ATCC 19606: 8 µg/mL (≈ 7.08 µM)
  Minimum inhibitory concentration, Ab FADDI-AB034: 4 µg/mL (≈ 3.54 µM)
Pseudomonas aeruginosa
  MIC: >32 µg/mL
  Minimum inhibitory concentration, Pa ATCC 27853: >32 µg/mL
  Minimum inhibitory concentration, Pa FADDI-PA022: 0.5 µg/mL (≈ 0.443 µM)
  Minimum inhibitory concentration, Pa FADDI-PA025: >32 µg/mL
Enterobacter cloacae
  Minimum inhibitory concentration, Ec FADDI-EC001: <0.125 µg/mL
  Minimum inhibitory concentration, Ec FADDI-EC003: 0.25 µg/mL (≈ 0.221 µM)
  Minimum inhibitory concentration, Ec FADDI-EC006: 0.5 µg/mL (≈ 0.443 µM)

Reference: USRE48335E1, “Polymyxin derivatives as antimicrobial compounds” (priority 2014, dated 2020)
